Assay results reported in patent US20220324803A1 (Teon Therapeutics, Inc., priority 2019, published 2022).

The compounds below were run against T1, human Prostanoid EP4 Receptor (EP4) (Homo sapiens, UniProt P35408) (assay: Prostanoid EP4 binding assay (3H-prostaglandin E2 displacement, cell membranes)). Details: HEK293 cell membranes with human EP4, 3H-prostaglandin E2, 24° C.
T1 construct: expressed in transfected cells; host or cells: HEK293 (G418 selection); membranes prepared by differential centrifugation
Protocol: HEK293 cells transfected with human Prostanoid EP4 Receptor (EP4) are maintained in DMEM supplemented with L-Glutamine, 10% FBS and 300 μg/ml G418. Cells are harvested and membranes prepared by differential centrifugation, following lysis of the cells in the presence of protease inhibitors, for use in the receptor binding assay. EP4 binding assay is performed in 50 mM HEPES pH7.4, 5 mM MgCl2, 1 mM CaCl2) and 0.2% BSA. Testing compounds are diluted with DMSO to make 8-point 4-fold serial dilution. Cell membrane homogenates are incubated at 24° C. with ^3H-prostaglandin E2 in the absence or presence of the testing compound in assay buffer. Nonspecific binding (Low control: LC) and total binding (High control: HC) are determined in the presence or absence of saturated cold ligand Prostaglandin E2 (PGE2). Specific binding is calculated by subtracting nonspecific binding from total binding. When binding assays are completed, the reaction mixture is filtered rapidly under vacuum through glass fiber filters (GF/C, Packard) presoaked with 0.5% BSA for at least 0.5 hour at room temperature and then washed for 4 times with cold wash buffer (50 mM HEPES pH7.4, 500 mM NaCl, 0.1% BSA) using a 96-sample Perkin Elmer Filtermate Harvester (Unifilter, Packard). The filters are dried for 1 hour at 50 degrees then counted for radioactivity in a scintillation counter using Perkin Elmer Microscint 20 cocktail. ^3H trapped on filter is counted using Perkin Elmer MicroBeta2 Reader. Inhibition is calculated using following equation: % Inhibition=(1−(Assay well−Average_LC)/(Average_HC−Average_LC))×100%. The results are expressed as a percent inhibition of the control radioligand specific binding. Data are analyzed and IC50 is calculated using GraphPad Prism 5 and the model “log(inhibitor) vs. response—Variable slope”. The binding affinity of the compounds is determined by using the Cheng and Prusoff equation Ki=IC50/(1+[radioligand]/Kd).

T1 sequence (P35408 whole entry): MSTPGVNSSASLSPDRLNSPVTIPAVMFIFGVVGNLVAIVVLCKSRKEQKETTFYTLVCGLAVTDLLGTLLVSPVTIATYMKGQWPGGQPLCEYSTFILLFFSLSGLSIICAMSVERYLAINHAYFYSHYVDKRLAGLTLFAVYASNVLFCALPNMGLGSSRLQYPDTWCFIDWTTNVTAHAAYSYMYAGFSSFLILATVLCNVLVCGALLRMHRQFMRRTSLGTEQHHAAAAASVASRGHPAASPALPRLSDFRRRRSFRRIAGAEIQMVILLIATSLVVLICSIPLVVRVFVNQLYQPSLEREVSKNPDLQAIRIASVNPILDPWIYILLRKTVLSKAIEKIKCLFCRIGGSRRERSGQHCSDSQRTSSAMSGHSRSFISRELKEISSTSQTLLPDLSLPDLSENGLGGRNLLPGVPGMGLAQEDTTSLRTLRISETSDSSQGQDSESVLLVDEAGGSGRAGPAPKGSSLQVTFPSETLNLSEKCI

Compound | Ki
CCn1nc(C(=O)N[C@H]2CC3(C2)C[C@H](C(=O)O)C3)c2c(Cc3ccc(C(F)(F)F)cc3)cccc21 (single isomer, unassigned) [Compound 11B, trans-2-[[1-ethyl-4-[[4-(trifluoromethyl)phenyl]methyl]indazole-3-carbonyl]amino]spiro[3.3]heptane-6-carboxylic acid] | < 100 nM
O=C(NC[C@H]1CC[C@H](C(=O)O)CC1)c1cnn2cccc(Cc3ccc(C(F)(F)F)cc3)c12 [Compound 40, (1r,4r)-4-[[[4-[[4-(trifluoromethyl)phenyl]methyl]pyrazolo[1,5-a]pyridine-3-carbonyl]amino]methyl]cyclohexanecarboxylic acid] | < 100 nM
O=C(N[C@H]1CC2(C1)C[C@H](C(=O)O)C2)c1ncn2cccc(Cc3ccc(C(F)(F)F)cc3)c12 (single isomer, unassigned) [Compound 6B, trans-2-[[8-[[4-(trifluoromethyl)phenyl]methyl]imidazo[1,5-a]pyridine-1-carbonyl]amino]spiro[3.3]heptane-6-carboxylic acid] | < 100 nM
CCn1cc(C(=O)NC2CC3(C2)CC(C(=O)O)C3)c2c(Cc3ccc(C(F)(F)F)cc3)ccnc21 (stereo not drawn) [Compound 45, trans-2-[[1-ethyl-4-[[4-(trifluoromethyl)phenyl]methyl]-pyrrolo[2,3-b]pyridine-3-carbonyl]amino]spiro[3.3]heptane-6-carboxylic acid] | < 100 nM
O=C(O)Cc1ccc(NC(=O)c2cnn3cccc(Cc4ccc(C(F)(F)F)cc4)c23)cc1 [Compound 28, 2-[4-[[4-[[4-(trifluoromethyl)phenyl]methyl]pyrazolo[1,5-a]pyridine-3-carbonyl]amino]phenyl]acetic acid] | 100 to 499 nM
C[C@H](NC(=O)c1ncn2cccc(Cc3ccc(C(F)(F)F)cc3)c12)c1ccc(C(=O)O)cc1 [Compound 5, 4-[(1S)-1-[[8-[[4-(trifluoromethyl)phenyl]methyl]imidazo[1,5-a]pyridine-1-carbonyl]amino]ethyl]benzoic acid] | 100 to 499 nM
C[C@H](NC(=O)c1cn(CCF)c2nccc(Cc3ccc(C(F)(F)F)cc3)c12)c1ccc(C(=O)O)cc1 [Compound 47, 4-[(1S)-1-[[1-(2-fluoroethyl)-4-[[4-(trifluoromethyl)phenyl]methyl]pyrrolo[2,3-b]pyridine-3-carbonyl]amino]ethyl]benzoic acid] | < 100 nM
O=C(Nc1ccc(C2(C(=O)O)CC2)cc1)c1cnn2cccc(Cc3ccc(C(F)(F)F)cc3)c12 [Compound 31, 1-[4-[[4-[[4-(trifluoromethyl)phenyl]methyl]pyrazolo[1,5-a]pyridine-3-carbonyl]amino]phenyl]cyclopropanecarboxylic acid] | > 500 nM
C[C@H](NC(=O)c1cn(CCF)c2cccc(Cc3ccc(C(F)(F)F)cc3)c12)c1ccc(C(=O)O)cc1 [Compound 43, 4-[(1S)-1-[[1-(2-fluoroethyl)-4-[[4-(trifluoromethyl)phenyl]methyl]indole-3-carbonyl]amino]ethyl]benzoic acid] | < 100 nM
CCn1cc(C(=O)NC23CC(CC(=O)O)(C2)C3)c2c(Cc3ccc(C(F)(F)F)cc3)ccnc21 [Compound 53] | < 100 nM
O=C(NC1CC2(C1)CC(C(=O)O)C2)c1cn(CCF)c2nccc(Cc3ccc(C(F)(F)F)cc3)c12 (stereo not drawn) [Compound 48, trans-2-[[1-(2-fluoroethyl)-4-[[4-(trifluoromethyl)phenyl]methyl]-pyrrolo[2,3-b]pyridine-3-carbonyl]amino]spiro[3.3]heptane-6-carboxylic acid] | < 100 nM
O=C(O)CC12CC(NC(=O)c3ncn4cccc(Cc5ccc(C(F)(F)F)cc5)c34)(C1)C2 [Compound 17, 2-[3-[[8-[[4-(trifluoromethyl)phenyl]methyl]imidazo[1,5-a]pyridine-1-carbonyl]amino]-1-bicyclo[1.1.1]pentanyl]acetic acid] | 100 to 499 nM
CCn1cc(C(=O)N[C@H]2CC[C@H](CC(=O)O)CC2)c2c(Cc3ccc(C(F)(F)F)cc3)cccc21 [Compound 56, 2-[(1r,4r)-4-[[1-ethyl-4-[[4-(trifluoromethyl)phenyl]methyl]indole-3-carbonyl]amino]cyclohexyl]acetic acid] | < 100 nM
CCn1nc(C(=O)N[C@H]2CC3(C2)C[C@H](C(=O)O)C3)c2c(Cc3ccc(C(F)(F)F)cc3)cccc21 (single isomer, unassigned) [Compound 11A, cis-2-[[1-ethyl-4-[[4-(trifluoromethyl)phenyl]methyl]indazole-3-carbonyl]amino]spiro[3.3]heptane-6-carboxylic acid] | 100 to 499 nM
O=C(NCC12CCC(C(=O)O)(CC1)C2)c1cnn2cccc(Cc3ccc(C(F)(F)F)cc3)c12 [Compound 50, 4-[[[4-[[4-(trifluoromethyl)phenyl]methyl]pyrazolo[1,5-a]pyridine-3-carbonyl]amino]methyl]norbornane-1-carboxylic acid] | > 500 nM
O=C(N[C@H]1CC2(C1)C[C@H](C(=O)O)C2)c1cn(CCF)c2cccc(Cc3ccc(C(F)(F)F)cc3)c12 (stereo partly drawn) [Compound 44, trans-2-[[1-(2-fluoroethyl)-4-[[4-(trifluoromethyl)phenyl]methyl]-indole-3-carbonyl]amino]spiro[3.3]heptane-6-carboxylic acid] | < 100 nM
O=C(N[C@H]1CC2(C1)C[C@H](C(=O)O)C2)c1ncn2cccc(Cc3ccc(C(F)(F)F)cc3)c12 (single isomer, unassigned) [Compound 6A, cis-2-[[8-[[4-(trifluoromethyl)phenyl]methyl]imidazo[1,5-a]pyridine-1-carbonyl]amino]spiro[3.3]heptane-6-carboxylic acid] | > 500 nM
CC(C)Cn1nc(C(=O)N[C@@H](C)c2ccc(C(=O)O)cc2)c2c(Cc3ccc(C(F)(F)F)cc3)cccc21 [Compound 23, 4-[(1S)-1-[[1-isobutyl-4-[[4-(trifluoromethyl)phenyl]methyl]indazole-3-carbonyl]amino]ethyl]benzoic acid] | < 100 nM
C[C@@H](NC(=O)c1cnn2cccc(Cc3ccc(C(F)(F)F)cc3)c12)c1ccc(C(=O)O)cc1 [Compound 27, 4-[(1R)-1-[[4-[[4-(trifluoromethyl)phenyl]methyl]pyrazolo[1,5-a]pyridine-3-carbonyl]amino]ethyl]benzoic acid] | < 100 nM
CCn1nc(C(=O)NC23CC(CC(=O)O)(C2)C3)c2c(Cc3ccc(C(F)(F)F)cc3)cccc21 [Compound 19, 2-[3-[[1-ethyl-4-[[4-(trifluoromethyl)phenyl]methyl]indazole-3-carbonyl]amino]-1-bicyclo[1.1.1]pentanyl]acetic acid] | 100 to 499 nM
O=C(O)C[C@H]1CC[C@H](NC(=O)c2cnn3cccc(Cc4ccc(C(F)(F)F)cc4)c23)CC1 [Compound 38, 2-((1r,4r)-4-(4-(4-(trifluoromethyl)benzyl)pyrazolo[1,5-a]pyridine-3-carboxamido)cyclohexyl)acetic acid] | < 100 nM
O=C(O)C[C@H]1CC[C@H](NC(=O)c2cn(CCF)c3nccc(Cc4ccc(C(F)(F)F)cc4)c23)CC1 [Compound 57, 2-[(1r,4r)-4-[[1-(2-fluoroethyl)-4-[[4-(trifluoromethyl)-phenyl]methyl]pyrrolo[2,3-b]pyridine-3-carbonyl]amino]cyclohexyl]acetic acid] | < 100 nM
O=C(NC[C@H]1CC[C@H](C(=O)O)CC1)c1cn(CCF)c2nccc(Cc3ccc(C(F)(F)F)cc3)c12 [Compound 58, (1r,4r)-4-[[[1-(2-fluoroethyl)-4-[[4-(trifluoromethyl)-phenyl]methyl]-pyrrolo[2,3-b]pyridine-3-carbonyl]amino]methyl]cyclohexanecarboxylic acid] | < 100 nM
O=C(O)c1ccc(C2(NC(=O)c3cnn4cccc(Cc5ccc(C(F)(F)F)cc5)c34)CC2)cc1 [Compound 26, 4-[1-[[4-[[4-(trifluoromethyl)phenyl]methyl]pyrazolo[1,5-a]pyridine-3-carbonyl]amino]cyclopropyl]benzoic acid] | < 100 nM
O=C(O)CC12CCC(NC(=O)c3cnn4cccc(Cc5ccc(C(F)(F)F)cc5)c34)(CC1)CC2 [Compound 35, 2-(4-(4-(4-(trifluoromethyl)benzyl)pyrazolo[1,5-a]pyridine-3-carboxamido)bicyclo[2.2.2]octan-1-yl)acetic acid] | 100 to 499 nM
CCn1cc(C(=O)N[C@@H](C)c2ccc(C(=O)O)cc2)c2c(Cc3ccc(C(F)(F)F)cc3)cccc21 [Compound 42, 4-[(1S)-1-[[1-ethyl-4-[[4-(trifluoromethyl)phenyl]methyl]indole-3-carbonyl]amino]ethyl]benzoic acid] | < 100 nM
CCn1cc(C(=O)NC[C@H]2CC[C@H](C(=O)O)CC2)c2c(Cc3ccc(C(F)(F)F)cc3)cccc21 [Compound 55, (1r,4r)-4-[[[1-ethyl-4-[[4-(trifluoromethyl)phenyl]methyl]indole-3-carbonyl]amino]methyl]cyclohexanecarboxylic acid] | < 100 nM
